Values joined by “and” are separate entries in the source; they are usually repeats but may differ in a detail not shown here. Identical values can stand only once. ± gives the expanded uncertainty stated by the source.
Assay: molar heat capacity at constant pressure
Conditions: 101.33 kPa, Crystal

O [water]
Conditions	molar heat capacity at constant pressure
0.4719 K, Low-temperature adiabatic	4.834e-06 ± 4.7e-06 J/K/mol
0.4841 K, Low-temperature adiabatic	2.38e-05 ± 2.6e-06 J/K/mol
0.5 K, adiabatic	2.28e-05 ± 6.4e-06 J/K/mol
0.5191 K, Low-temperature adiabatic	3.571e-05 ± 4.3e-06 J/K/mol
0.5328 K, Low-temperature adiabatic	2.99e-05 ± 3.1e-06 J/K/mol
0.5456 K, Low-temperature adiabatic	3.104e-05 ± 4.2e-06 J/K/mol
0.5713 K, Low-temperature adiabatic	3.382e-05 ± 4.9e-06 J/K/mol
0.5859 K, Low-temperature adiabatic	3.177e-05 ± 4.9e-06 J/K/mol
0.5999 K, Low-temperature adiabatic	3.883e-05 ± 3.7e-06 J/K/mol
0.6287 K, Low-temperature adiabatic	4.342e-05 ± 3.4e-06 J/K/mol
0.6451 K, Low-temperature adiabatic	3.414e-05 ± 4.2e-06 J/K/mol
0.6608 K, Low-temperature adiabatic	4.582e-05 ± 4.6e-06 J/K/mol
0.6935 K, Low-temperature adiabatic	5.952e-05 ± 5.2e-06 J/K/mol
0.7107 K, Low-temperature adiabatic	6.565e-05 ± 6.4e-06 J/K/mol
0.7283 K, Low-temperature adiabatic	7.207e-05 ± 6.4e-06 J/K/mol
0.764 K, Low-temperature adiabatic	7.817e-05 ± 8.2e-06 J/K/mol
0.783 K, Low-temperature adiabatic	8.554e-05 ± 7.7e-06 J/K/mol
0.8021 K, Low-temperature adiabatic	9.413e-05 ± 7.9e-06 J/K/mol
0.8407 K, Low-temperature adiabatic	0.0001158 ± 8e-06 J/K/mol
0.8618 K, Low-temperature adiabatic	0.0001219 ± 8e-06 J/K/mol
0.8828 K, Low-temperature adiabatic	0.0001311 ± 9.6e-06 J/K/mol
0.9245 K, Low-temperature adiabatic	0.0001506 ± 9.4e-06 J/K/mol
0.9708 K, Low-temperature adiabatic	0.000169 ± 9.8e-06 J/K/mol
1 K, adiabatic	0.0001825 ± 1.2e-05 J/K/mol
1.015 K, Low-temperature adiabatic	0.0001986 ± 1e-05 J/K/mol
1.04 K, Low-temperature adiabatic	0.0002059 ± 1.1e-05 J/K/mol
1.066 K, Low-temperature adiabatic	0.0002218 ± 1.3e-05 J/K/mol
1.116 K, Low-temperature adiabatic	0.0002582 ± 1.3e-05 J/K/mol
1.146 K, Low-temperature adiabatic	0.0002671 ± 1.5e-05 J/K/mol
1.173 K, Low-temperature adiabatic	0.0002946 ± 1.7e-05 J/K/mol
1.228 K, Low-temperature adiabatic	0.0003386 ± 1.7e-05 J/K/mol
1.261 K, Low-temperature adiabatic	0.0003738 ± 1.9e-05 J/K/mol
1.292 K, Low-temperature adiabatic	0.0004076 ± 1.8e-05 J/K/mol
1.352 K, Low-temperature adiabatic	0.0004587 ± 2.1e-05 J/K/mol
1.388 K, Low-temperature adiabatic	0.0004915 ± 2.1e-05 J/K/mol
1.485 K, Low-temperature adiabatic	0.0006013 ± 2.4e-05 J/K/mol
1.5 K, adiabatic	0.0006167 ± 2.6e-05 J/K/mol
1.522 K, Low-temperature adiabatic	0.0006394 ± 2.5e-05 J/K/mol
1.561 K, Low-temperature adiabatic	0.0006901 ± 2.5e-05 J/K/mol
1.634 K, Low-temperature adiabatic	0.0007957 ± 3.1e-05 J/K/mol
1.675 K, Low-temperature adiabatic	0.0008489 ± 3.1e-05 J/K/mol
1.716 K, Low-temperature adiabatic	0.0009132 ± 3.1e-05 J/K/mol
1.731 K, Low-temperature adiabatic	0.0009652 ± 3.2e-05 J/K/mol
1.798 K, Low-temperature adiabatic	0.001053 ± 3.5e-05 J/K/mol
1.816 K, Low-temperature adiabatic	0.001109 ± 3.6e-05 J/K/mol
1.843 K, Low-temperature adiabatic	0.001123 ± 3.5e-05 J/K/mol
1.887 K, Low-temperature adiabatic	0.001207 ± 3.9e-05 J/K/mol
1.904 K, Low-temperature adiabatic	0.00125 ± 3.8e-05 J/K/mol
1.977 K, Low-temperature adiabatic	0.00139 ± 4.3e-05 J/K/mol
1.998 K, Low-temperature adiabatic	0.001434 ± 4.4e-05 J/K/mol
2 K, adiabatic	0.001465 ± 4.6e-05 J/K/mol
2.027 K, Low-temperature adiabatic	0.001484 ± 4.4e-05 J/K/mol
2.076 K, Low-temperature adiabatic	0.001598 ± 4.7e-05 J/K/mol
2.095 K, Low-temperature adiabatic	0.001659 ± 4.7e-05 J/K/mol
2.175 K, Low-temperature adiabatic	0.00184 ± 5.5e-05 J/K/mol
2.2 K, Low-temperature adiabatic	0.001902 ± 5.4e-05 J/K/mol
2.304 K, Low-temperature adiabatic	0.002208 ± 5.9e-05 J/K/mol
2.421 K, Low-temperature adiabatic	0.002544 ± 6.6e-05 J/K/mol
2.5 K, adiabatic	0.002874 ± 7.2e-05 J/K/mol
2.536 K, Low-temperature adiabatic	0.002963 ± 7.5e-05 J/K/mol
2.664 K, Low-temperature adiabatic	0.003432 ± 8.3e-05 J/K/mol
2.791 K, Low-temperature adiabatic	0.003994 ± 9e-05 J/K/mol
2.932 K, Low-temperature adiabatic	0.004612 ± 0.0001 J/K/mol
3 K, adiabatic	0.004998 ± 0.00011 J/K/mol
3.073 K, Low-temperature adiabatic	0.005384 ± 0.00011 J/K/mol
3.228 K, Low-temperature adiabatic	0.006206 ± 0.00012 J/K/mol
3.381 K, Low-temperature adiabatic	0.007213 ± 0.00013 J/K/mol
3.5 K, adiabatic	0.008013 ± 0.00015 J/K/mol
3.552 K, Low-temperature adiabatic	0.008311 ± 0.00015 J/K/mol
3.719 K, Low-temperature adiabatic	0.00968 ± 0.00017 J/K/mol
3.906 K, Low-temperature adiabatic	0.01117 ± 0.00019 J/K/mol
4 K, adiabatic	0.01212 ± 0.0002 J/K/mol
4.089 K, Low-temperature adiabatic	0.01302 ± 0.00021 J/K/mol
4.294 K, Low-temperature adiabatic	0.01503 ± 0.00023 J/K/mol
4.498 K, Low-temperature adiabatic	0.01756 ± 0.00026 J/K/mol
4.5 K, adiabatic	0.01755 ± 0.00026 J/K/mol
4.723 K, Low-temperature adiabatic	0.02031 ± 0.0003 J/K/mol
4.947 K, Low-temperature adiabatic	0.02384 ± 0.00033 J/K/mol
5 K, adiabatic	0.02458 ± 0.00034 J/K/mol
5.194 K, Low-temperature adiabatic	0.02762 ± 0.00038 J/K/mol
5.44 K, Low-temperature adiabatic	0.03248 ± 0.00042 J/K/mol
5.5 K, adiabatic	0.03354 ± 0.00044 J/K/mol
5.713 K, Low-temperature adiabatic	0.03773 ± 0.00048 J/K/mol
5.985 K, Low-temperature adiabatic	0.04456 ± 0.00054 J/K/mol
6 K, adiabatic	0.04478 ± 0.00055 J/K/mol
6.284 K, Low-temperature adiabatic	0.05186 ± 0.00063 J/K/mol
6.5 K, adiabatic	0.05874 ± 0.00069 J/K/mol
6.583 K, Low-temperature adiabatic	0.06156 ± 0.00071 J/K/mol
6.912 K, Low-temperature adiabatic	0.07207 ± 0.00082 J/K/mol
7 K, adiabatic	0.07583 ± 0.00085 J/K/mol
7.239 K, Low-temperature adiabatic	0.08574 ± 0.00094 J/K/mol
7.5 K, adiabatic	0.09651 ± 0.001 J/K/mol
7.6 K, Low-temperature adiabatic	0.1009 ± 0.0011 J/K/mol
7.96 K, Low-temperature adiabatic	0.1206 ± 0.0012 J/K/mol
8 K, adiabatic	0.1212 ± 0.0012 J/K/mol
8.354 K, Low-temperature adiabatic	0.1416 ± 0.0014 J/K/mol
8.5 K, adiabatic	0.1503 ± 0.0015 J/K/mol
8.75 K, Low-temperature adiabatic	0.1684 ± 0.0016 J/K/mol
9 K, adiabatic	0.1842 ± 0.0017 J/K/mol
9.185 K, Low-temperature adiabatic	0.1972 ± 0.0018 J/K/mol
9.187 K, Low-temperature adiabatic	0.1979 ± 0.0018 J/K/mol
9.5 K, adiabatic	0.2231 ± 0.002 J/K/mol
9.619 K, Low-temperature adiabatic	0.2343 ± 0.0021 J/K/mol
9.645 K, Low-temperature adiabatic	0.2352 ± 0.0021 J/K/mol
10 K, adiabatic	0.2672 ± 0.0024 J/K/mol
10.11 K, Low-temperature adiabatic	0.2752 ± 0.0024 J/K/mol and 0.2768 ± 0.0024 J/K/mol
10.59 K, Low-temperature adiabatic	0.3268 ± 0.0027 J/K/mol
10.6 K, Low-temperature adiabatic	0.3266 ± 0.0027 J/K/mol
11 K, adiabatic	0.3709 ± 0.0029 J/K/mol
11.12 K, Low-temperature adiabatic	0.3841 ± 0.003 J/K/mol
11.66 K, Low-temperature adiabatic	0.4516 ± 0.0034 J/K/mol
12 K, adiabatic	0.4948 ± 0.0036 J/K/mol
12.23 K, Low-temperature adiabatic	0.5267 ± 0.0038 J/K/mol
12.82 K, Low-temperature adiabatic	0.6103 ± 0.0043 J/K/mol
13 K, adiabatic	0.6372 ± 0.0044 J/K/mol
13.43 K, Low-temperature adiabatic	0.7044 ± 0.0047 J/K/mol
14 K, adiabatic	0.7967 ± 0.0052 J/K/mol
14.08 K, Low-temperature adiabatic	0.8099 ± 0.0053 J/K/mol
14.75 K, Low-temperature adiabatic	0.9261 ± 0.0059 J/K/mol
15 K, adiabatic	0.9716 ± 0.0061 J/K/mol
15.46 K, Low-temperature adiabatic	1.058 ± 0.0065 J/K/mol
16 K, adiabatic	1.16 ± 0.007 J/K/mol
16.19 K, Low-temperature adiabatic	1.197 ± 0.0071 J/K/mol
16.99 K, Low-temperature adiabatic	1.356 ± 0.0079 J/K/mol
17 K, adiabatic	1.358 ± 0.0079 J/K/mol
17.79 K, Low-temperature adiabatic	1.518 ± 0.0087 J/K/mol
18 K, adiabatic	1.564 ± 0.0089 J/K/mol
18.66 K, Low-temperature adiabatic	1.704 ± 0.0095 J/K/mol
19 K, adiabatic	1.777 ± 0.0099 J/K/mol
19.55 K, Low-temperature adiabatic	1.895 ± 0.011 J/K/mol
19.6 K, Low-temperature adiabatic	1.908 ± 0.011 J/K/mol
20 K, adiabatic	1.993 ± 0.011 J/K/mol
20.58 K, Low-temperature adiabatic	2.12 ± 0.011 J/K/mol
21.46 K, Low-temperature adiabatic	2.315 ± 0.012 J/K/mol
22 K, adiabatic	2.433 ± 0.013 J/K/mol
22.52 K, Low-temperature adiabatic	2.55 ± 0.013 J/K/mol
23.59 K, Low-temperature adiabatic	2.78 ± 0.015 J/K/mol
24 K, adiabatic	2.873 ± 0.015 J/K/mol
24.75 K, Low-temperature adiabatic	3.037 ± 0.016 J/K/mol
25.92 K, Low-temperature adiabatic	3.292 ± 0.017 J/K/mol
26 K, adiabatic	3.306 ± 0.017 J/K/mol
27.21 K, Low-temperature adiabatic	3.562 ± 0.018 J/K/mol
28 K, adiabatic	3.728 ± 0.019 J/K/mol
28.49 K, Low-temperature adiabatic	3.828 ± 0.02 J/K/mol
29.94 K, Low-temperature adiabatic	4.128 ± 0.021 J/K/mol
30 K, adiabatic	4.139 ± 0.021 J/K/mol
31.38 K, Low-temperature adiabatic	4.423 ± 0.022 J/K/mol
32 K, adiabatic	4.543 ± 0.023 J/K/mol
32.99 K, Low-temperature adiabatic	4.735 ± 0.024 J/K/mol
34 K, adiabatic	4.947 ± 0.025 J/K/mol
34.59 K, Low-temperature adiabatic	5.067 ± 0.026 J/K/mol
36 K, adiabatic	5.363 ± 0.027 J/K/mol
36.02 K, Low-temperature adiabatic	5.371 ± 0.027 J/K/mol
37.45 K, Low-temperature adiabatic	5.677 ± 0.029 J/K/mol
38 K, adiabatic	5.804 ± 0.029 J/K/mol
